Measurements taken from the CheMixHub viscosity set.

Experiment: xn = mol fraction of the nth substance listed

C1C[C@@H]2[C@H]3CC[C@H](C3)[C@@H]2C1 + CC(C)CO
viscosity [mPa·s], 100 kPa
Conditions | x1 = 0.1002 | x1 = 0.2 | x1 = 0.3002 | x1 = 0.4003 | x1 = 0.4998 | x1 = 0.6003 | x1 = 0.7002 | x1 = 0.7994 | x1 = 0.8979
293.15 K | 3.668 | 3.397 | 3.217 | 3.04 | 2.883 | 2.814 | 2.769 | 2.78 | 2.848
298.15 K | 3.135 | 2.923 | 2.772 | 2.644 | 2.541 | 2.489 | 2.47 | 2.493 | 2.563
303.15 K | 2.692 | 2.526 | 2.408 | 2.318 | 2.247 | 2.219 | 2.219 | 2.249 | 2.323
308.15 K | 2.325 | 2.196 | 2.108 | 2.044 | 1.998 | 1.99 | 2.003 | 2.037 | 2.113
313.15 K | 2.02 | 1.92 | 1.856 | 1.814 | 1.787 | 1.79 | 1.814 | 1.854 | 1.929
318.15 K | 1.764 | 1.689 | 1.645 | 1.616 | 1.607 | 1.618 | 1.646 | 1.695 | 1.77
323.15 K | 1.551 | 1.494 | 1.465 | 1.448 | 1.452 | 1.471 | 1.507 | 1.555 | 1.627

ClCCCCCl + CC(C)CO
viscosity [mPa·s], 101 kPa
Conditions | x1 = 0.0994 | x1 = 0.1958 | x1 = 0.2938 | x1 = 0.4026 | x1 = 0.5 | x1 = 0.6041 | x1 = 0.7031 | x1 = 0.801 | x1 = 0.8984
298.15 K | 2.524 | 2.027 | 1.715 | 1.501 | 1.371 | 1.285 | 1.236 | 1.208 | 1.215
313.15 K | 1.648 | 1.381 | 1.207 | 1.097 | 1.02 | 0.977 | 0.9567 | 0.9491 | 0.9661

CCC(=O)O + CC(C)O
viscosity [mPa·s], 101 kPa
Conditions | x2 = 0.007361 | x2 = 0.0288 | x2 = 0.04944 | x2 = 0.06903 | x2 = 0.1 | x2 = 0.1291 | x2 = 0.1819 | x2 = 0.2287
298.15 K | 2.67 | 2.6 | 2.54 | 2.475 | 2.4 | 2.342 | 2.277 | 2.22
308.15 K | 1.99 | 1.948 | 1.915 | 1.882 | 1.836 | 1.8 | 1.75 | 1.71
318.15 K | 1.54 | 1.52 | 1.5 | 1.484 | 1.454 | 1.428 | 1.392 | 1.367

C1C[C@@H]2[C@H]3CC[C@H](C3)[C@@H]2C1 + CC(C)OC(C)C
viscosity [mPa·s], 101.33 kPa
Conditions | x2 = 0.1 | x2 = 0.2043 | x2 = 0.3168 | x2 = 0.4 | x2 = 0.4997 | x2 = 0.5937 | x2 = 0.703 | x2 = 0.8066 | x2 = 0.9085
293.15 K | 2.279 | 1.725 | 1.309 | 1.074 | 0.865 | 0.719 | 0.592 | 0.493 | 0.412
298.15 K | 2.062 | 1.572 | 1.206 | 0.995 | 0.802 | 0.666 | 0.556 | 0.473 | 0.391
303.15 K | 1.88 | 1.441 | 1.116 | 0.926 | 0.76 | 0.631 | 0.532 | 0.454 | 0.376
308.15 K | 1.712 | 1.324 | 1.026 | 0.861 | 0.706 | 0.593 | 0.497 | 0.426 | 0.357
313.15 K | 1.573 | 1.226 | 0.95 | 0.799 | 0.659 | 0.558 | 0.469 | 0.402 | 0.338

CCC(=O)O + CCC(C)=O
viscosity [mPa·s], 101 kPa
Conditions | x2 = 0.0847 | x2 = 0.1723 | x2 = 0.2585 | x2 = 0.357 | x2 = 0.4544 | x2 = 0.5554 | x2 = 0.6602 | x2 = 0.7691 | x2 = 0.8822
293.15 K | 1.038 | 0.9722 | 0.9093 | 0.8393 | 0.7718 | 0.7038 | 0.6354 | 0.5665 | 0.4974
303.15 K | 0.9022 | 0.846 | 0.7921 | 0.7324 | 0.6751 | 0.6177 | 0.556 | 0.5027 | 0.4455
313.15 K | 0.7975 | 0.7494 | 0.7031 | 0.6516 | 0.6019 | 0.5519 | 0.5015 | 0.4508 | 0.4

ClCCCCCl + CCC(C)O
101 kPa
Conditions | viscosity [mPa·s]
298.15 K, x1 = 0.1012 | 2.118
298.15 K, x1 = 0.2021 | 1.633
298.15 K, x1 = 0.2996 | 1.408
298.15 K, x1 = 0.4004 | 1.281
298.15 K, x1 = 0.4967 | 1.199
298.15 K, x1 = 0.5999 | 1.158
298.15 K, x1 = 0.7024 | 1.143
298.15 K, x1 = 0.7987 | 1.151
298.15 K, x1 = 0.899 | 1.199
313.15 K, x1 = 0.1002 | 1.369
313.15 K, x1 = 0.2041 | 1.123
313.15 K, x1 = 0.3125 | 0.9913
313.15 K, x1 = 0.3996 | 0.9298
313.15 K, x1 = 0.5046 | 0.8882
313.15 K, x1 = 0.6034 | 0.8716
313.15 K, x1 = 0.7008 | 0.8721
313.15 K, x1 = 0.8052 | 0.8932
313.15 K, x1 = 0.9001 | 0.9458
